| SMILES | logP |
| --- | --- |
| COC(=O)C(Cc1ccccc1)c1ccc2c(c1O)C(=O)c1c(O)cccc1C2 (stereo not drawn) | 4.86 |
| O=C(O)CCCCc1ccc2c(c1O)C(=O)c1c(O)cccc1C2 | 4.22 |
| COC(=O)C(CCc1ccccc1)c1ccc2c(c1O)C(=O)c1c(O)cccc1C2 (stereo not drawn) | 5.17 |
| COC(=O)Cc1ccc2c(c1O)C(=O)c1c(O)cccc1C2 | 3.93 |
| COC(=O)CCCCCc1ccc2c(c1O)C(=O)c1c(O)cccc1C2 | 5.34 |
| CC(C(=O)O)C(C)c1ccc2c(c1O)C(=O)c1c(O)cccc1C2 (stereo not drawn) | 3.9 |
| O=C1c2c(O)cccc2Cc2ccc(C(CCc3ccccc3)C(=O)O)c(O)c21 (stereo not drawn) | 4.33 |
| CC(C(=O)O)c1ccc2c(c1O)C(=O)c1c(O)cccc1C2 (stereo not drawn) | 3.4 |
| O=C(O)CCCc1ccc2c(c1O)C(=O)c1c(O)cccc1C2 | 3.91 |
| COC(=O)C(C)C(C)c1ccc2c(c1O)C(=O)c1c(O)cccc1C2 (stereo not drawn) | 4.77 |
| COC(=O)C(C)c1ccc2c(c1O)C(=O)c1c(O)cccc1C2 (stereo not drawn) | 4.16 |
| COC(=O)CCc1ccc2c(c1O)C(=O)c1c(O)cccc1C2 | 4.55 |
| COC(=O)CCCCc1ccc2c(c1O)C(=O)c1c(O)cccc1C2 | 4.97 |
| O=C(O)CCCCCc1ccc2c(c1O)C(=O)c1c(O)cccc1C2 | 4.6 |
| O=C1c2c(O)cccc2Cc2ccc(C(Cc3ccccc3)C(=O)O)c(O)c21 (stereo not drawn) | 4.11 |
| O=C(O)CCc1ccc2c(c1O)C(=O)c1c(O)cccc1C2 | 3.78 |
| COC(=O)c1ccc(C(=O)c2ccc3c(c2O)C(=O)c2c(O)cccc2C3)cc1 | 5.22 |
| COC(=O)CCCc1ccc2c(c1O)C(=O)c1c(O)cccc1C2 | 4.63 |

From the SangsterLogP compilation
